This note sets out measurements from patent US20110166121A1 (LG LIFE SCIENCES LTD., priority 2008, published 2011).

By Ki is commonly meant the equilibrium dissociation constant of an inhibitor or competing ligand from its target. Lower therefore signals higher affinity.

Structures can show the parent of a compound that is named as a salt.

The subject of this assay is Human platelet aggregation caused by ADP. In words: Inhibition of ADP-induced platelet aggregation (Mimic-human PRP). Type of assay: cell-based. To be noted: 20 μM ADP, human platelet concentrate diluted with PPP, absorption at 595 nm. The essentials:
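Ki came from non-linear sigmoidal fits of inhibition, measured as the 3-min rise in absorbance at 595 nm after 20 μM ADP, relative to 0/20 μM ADP controls. Platelets (3–4×10^8/mL in PPP-diluted human PRP) were exposed to 0.01–30 μM compound for 20 min at room temperature beforehand.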
Compound `CCCc1cc2c(N3CCn4c(nnc4C(F)(F)F)C3)nc(N3CC[C@H](NC(=O)C4CC4)C3)nc2s1` [Example 1-108, Cyclopropanecarboxylic Acid {(S)-1-[6-propyl-4-(3-trifluoromethyl-5,6-dihydro-8H-[1,2,4]triazolo[4,3-a]pyrazin-7-yl)-thieno[2,3-d]pyrimidin-2-yl]-pyrrolidin-3-yl}-amide] registered a Ki of 9.3 nM.

Regarding `CCCc1cc2c(N3CCn4c(nnc4C(F)(F)F)C3)nc(N3CC[C@H](NC(=O)CO)C3)nc2s1` [Example 1-100, 2-Hydroxy-N-{(S)-1-[6-propyl-4-(3-trifluoromethyl-5,6-dihydro-8H-[1,2,4]triazolo[4,3-a]pyrazin-7-yl)-thieno[2,3-d]pyrimidin-2-yl]-pyrrolidin-3-yl}-acetamide], the inhibition constant Ki turned out to be 6 nM. With `CCCc1cc2c(N3CCn4c(nnc4C(F)(F)F)C3)nc(N3CCC(NC(C)=O)CC3)nc2s1` [Example 7-12, Hydrochloric acid salt of N-{1-[6-Propyl-4-(3-trifluoromethyl-5,6-dihydro-8H-[1,2,4]triazolo[4,3-a]pyrazin-7-yl)-thieno[2,3-d]pyrimidin-2-yl]-piperidin-4-yl}-acetamide] the figure was 35 nM; with `CCCc1cc2c(N3CCn4c(nnc4C(F)(F)F)C3)nc(N3CC(O)C(NC(C)=O)C3)nc2s1` (centres unmarked) [Example 7-17, N-{4-Hydroxy-1-[6-propyl-4-(3-trifluoromethyl-5,6-dihydro-8H-[1,2,4]triazolo[4,3-a]pyrazin-7-yl)-thieno[2,3-d]pyrimidin-2-yl]-pyrrolidin-3-yl}-acetamide], 2.8 nM. Then `CCCc1cc2c(N3CCn4c(nnc4C(F)(F)F)C3)nc(N3CC[C@H](C(=O)N(C)C4CCCCC4)C3)nc2s1` [Example 9-65], with 9300 nM. `CCCc1cc2c(N3CCn4c(nnc4C(F)(F)F)C3)nc(NC(=O)OC)nc2s1` [Example 9-107, [6-Propyl-4-(3-trifluoromethyl-5,6-dihydro-8H-[1,2,4]triazolo[4,3-a]pyrazin-7-yl)-thieno[2,3-d]pyrimidin-2-yl]-carbamic acid methyl ester]: the Ki was 170 nM. Then `CCCc1cc2c(N3CCn4c(nnc4C(F)(F)F)C3)nc(OCCC(=O)N3CCCC3)nc2s1` [Example 9-68, 3-[6-Propyl-4-(3-trifluoromethyl-5,6-dihydro-8H-[1,2,4]triazolo[4,3-a]pyrazin-7-yl)-thieno[2,3-d]pyrimidin-2-yloxy]-1-pyrrolidin-1-yl-propan-1-one], with 260 nM; and `CCCc1cc2c(N3CCn4c(nnc4C(F)(F)F)C3)nc(OC[C@@H]3CCCN3)nc2s1` [Example 7-37, Hydrochloric acid salt of 7-[6-Propyl-2-((S)-1-pyrrolidin-2-ylmethoxy)-thieno[2,3-d]pyrimidin-4-yl]-3-trifluoromethyl-5,6,7,8-tetrahydro-[1,2,4]triazolo[4,3-a]pyrazine], with 280 nM. Then `CCCc1cc2c(N3CCn4c(nnc4C(F)(F)F)C3)nc(OCCNCC(=O)OCC)nc2s1` [Example 3-54, {2-[6-Propyl-4-(3-trifluoromethyl-5,6-dihydro-8H-[1,2,4]triazolo[4,3-a]pyrazin-7-yl)-thieno[2,3-d]pyrimidin-2-yloxy]-ethylamino}-acetic acid ethyl ester], with 206 nM; and `CCCc1cc2c(N3CCn4c(nnc4C(F)(F)F)C3)nc(N3CC[C@H](NC(=O)C4CCCCC4)C3)nc2s1` [Example 9-9, Cyclohexanecarboxylic Acid {(S)-1-[6-propyl-4-(3-trifluoromethyl-5,6-dihydro-8H-[1,2,4]triazolo[4,3-a]pyrazin-7-yl)-thieno[2,3-d]pyrimidin-2-yl]-pyrrolidin-3-yl}-amide], with 300 nM. Then `CCCc1cc2c(N3CCn4c(nnc4C(F)(F)F)C3)nc(Nc3cc[nH]n3)nc2s1` [Example 9-53, [6-Propyl-4-(3-trifluoromethyl-5,6-dihydro-8H-[1,2,4]triazolo[4,3-a]pyrazin-7-yl)-thieno[2,3-d]pyrimidin-2-yl]-(1H-pyrazol-3-yl)-amine], with 31 nM; and `CCCc1cc2c(N3CCn4c(nnc4C(F)(F)F)C3)nc(N3CC[C@H](C(=O)NC4CCCC4)C3)nc2s1` [Example 9-64, (S)-1-[6-Propyl-4-(3-trifluoromethyl-5,6-dihydro-8H-[1,2,4]triazolo[4,3-a]pyrazin7-yl)-thieno[2,3-d]pyrimidin-2-yl]-pyrrolidine-3-carboxylic acid cyclopentylamide], with 1400 nM. For the compound `CCCc1cc2c(N3CCn4c(nnc4C(F)(F)F)C3)nc(N[C@H]3CCN(C(=O)C(C)C)C3)nc2s1` [Example 8-15, 2-Methyl-1-{(S)-3-[6-propyl-4-(3-trifluoromethyl-5,6-dihydro-8H-[1,2,4]triazolo[4,3-a]pyrazin-7-yl)-thieno[2,3-d]pyrimidin-2-ylamino]-pyrrolidin-1-yl}-propan-1-one], the affinity corresponds to a Ki of 7 nM. Then `CCCC(=O)NCCOc1nc(N2CCn3c(nnc3C(F)(F)F)C2)c2cc(CCC)sc2n1` [Example 7-30, N-{2-[6-Propyl-4-(3-trifluoromethyl-5,6-dihydro-8H-[1,2,4]triazolo[4,3-a]pyrazin-7-yl)-thieno[2,3-d]pyrimidin-2-yloxy]-ethyl}-butyramide], with 7.2 nM; and `CCCc1cc2c(N3CCn4c(nnc4C(F)(F)F)C3)nc(N(CCO)CC(=O)O)nc2s1` [Example 1-118, {(2-Hydroxy-ethyl)-[6-propyl-4-(3-trifluoromethyl-5,6-dihydro-8H-[1,2,4]triazolo[4,3-a]pyrazin-7-yl)-thieno[2,3-d]pyrimidin-2-yl]-amino}-acetic acid], with 34 nM.

In turn, `CCCc1cc2c(N3CCn4c(nnc4C(F)(F)F)C3)nc(N3CCCC(C(=O)NC)C3)nc2s1` (centres unmarked) [Example 1-93, 1-[6-Propyl-4-(3-trifluoromethyl-5,6-dihydro-8H-[1,2,4]triazolo[4,3-a]pyrazin-7-yl)-thieno[2,3-d]pyrimidin-2-yl]-piperidine-3-carboxylic acid methylamide] had a Ki of 204 nM. With `CCCc1cc2c(N3CCn4c(nnc4C(F)(F)F)C3)nc(OCC)nc2s1` [Example 9-36, 7-(2-Ethoxy-6-propyl-thieno[2,3-d]pyrimidin-4-yl)-3-trifluoromethyl-5,6,7,8-tetrahydro-[1,2,4]triazolo[4,3-a]pyrazine] the figure was 170 nM; with `CCCc1cc2c(N3CCn4c(nnc4C(F)(F)F)C3)nc(OCCCn3cccc3)nc2s1` [Example 9-92, 7-[6-Propyl-2-(3-pyrrol-1-yl-propoxy)-thieno[2,3-d]pyrimidin-4-yl]-3-trifluoromethyl-5,6,7,8-tetrahydro-[1,2,4]triazolo[4,3-a]pyrazine], 1300 nM. With `CCCc1cc2c(N3CCn4c(nnc4C(F)(F)F)C3)nc(N3CC[C@H](N(CCO)C(=O)OC)C3)nc2s1` [Example 9-94, (2-Hydroxy-ethyl)-{(S)-1-[6-propyl-4-(3-trifluoromethyl-5,6-dihydro-8H-[1,2,4]triazolo[4,3-a]pyrazin-7-yl)-thieno[2,3-d]pyrimidin-2-yl]-pyrrolidin-3-yl}-carbamic acid methyl ester] the figure was 280 nM; with `CCCc1cc2c(N3CCn4c(nnc4C(F)(F)F)C3)nc(OC[C@H]3CCCN3C(C)=O)nc2s1` [Example 8-28, -{(R)-2-[6-Propyl-4-(3-trifluoromethyl-5,6-dihydro-8H-[1,2,4]triazolo[4,3-a]pyrazin-7-yl)-thieno[2,3-d]pyrimidin-2-yloxymethyl]-pyrrolidin-1-yl}-ethanone], 45 nM; with `CCCC(=O)N1CC[C@@H](CNc2nc(N3CCn4c(nnc4C(F)(F)F)C3)c3cc(CCC)sc3n2)C1` [Example 8-20, 1-((S)-3-{[6-Propyl-4-(3-trifluoromethyl-5,6-dihydro-8H-[1,2,4]triazolo[4,3-a]pyrazin-7-yl)-thieno[2,3-d]pyrimidin-2-ylamino]-methyl}-pyrrolidin-1-yl)-butan-1-one], 410 nM. Then `CCCC(=O)N1CCC[C@H]1COc1nc(N2CCn3c(nnc3C(F)(F)F)C2)c2cc(CCC)sc2n1` [Example 8-32, 1-{(S)-2-[6-Propyl-4-(3-trifluoromethyl-5,6-dihydro-8H-[1,2,4]triazolo[4,3-a]pyrazin-7-yl)-thieno[2,3-d]pyrimidin-2-yloxymethyl]-pyrrolidin-1-yl}-butan-1-one], with 62 nM. For `CCCc1cc2c(N3CCn4c(nnc4C(F)(F)F)C3)nc(N3CC(N)C(O)C3)nc2s1` (centres unmarked) [Example 1-114, 4-Amino-1-[6-propyl-4-(3-trifluoromethyl-5,6-dihydro-8H-[1,2,4]triazolo[4,3-a]pyrazin-7-yl)-thieno[2,3-d]pyrimidin-2-yl]-pyrrolidin-3-ol], the affinity corresponds to a Ki of 3.8 nM. Then `CCCc1cc2c(N3CCn4c(nnc4C(F)(F)F)C3)nc(N3CC(O)C(NC=O)C3)nc2s1` (centres unmarked) [Example 9-28, N-{4-Hydroxy-1-[6-propyl-4-(3-trifluoromethyl-5,6-dihydro-8H-[1,2,4]triazolo[4,3-a]pyrazin-7-yl)-thieno[2,3-d]pyrimidin-2-yl]-pyrrolidin-3-yl}-formamide], with 0.16 nM; and `CCCc1cc2c(N3CCn4c(nnc4C(F)(F)F)C3)nc(-n3ccc(N)n3)nc2s1` [Example 9-52, 1-[6-Propyl-4-(3-trifluoromethyl-5,6-dihydro-8H-[1,2,4]triazolo[4,3-a]pyrazin-7-yl)-thieno[2,3-d]pyrimidin-2-yl]-1H-pyrazol-3-ylamine], with 16 nM; and `CCCc1cc2c(N3CCn4c(nnc4C(F)(F)F)C3)nc(OCCNC(=O)C(C)(C)CO)nc2s1` [Example 7-35, 3-Hydroxy-2,2-dimethyl-N-{2-[6-propyl-4-(3-trifluoromethyl-5,6-dihydro-8H-[1,2,4]triazolo[4,3-a]pyrazin-7-yl)-thieno[2,3-d]pyrimidin-2-yloxy]-ethyl}-propionamide], with 10 nM.
